{"source": "patent US20240050409A1", "about": "“Methods and Compositions for Treating Psychotic Disorders” (SOUND PHARMACEUTICALS INCORPORATED, priority 2014, published 2024)", "key": {"NVHL rats": {"system": "NVHL rats", "assay": "Prepulse inhibition of the acoustic startle response (PPI) in NVHL rats", "type": "in vivo, Sprague-Dawley rats", "conditions": "adult NVHL rats", "method": "To assess whether juvenile oxidative stress leads to behavioral deficits, a behavioral paradigm was used for testing in both animal models and schizophrenia patients. Prepulse inhibition of the acoustic startle response (PPI) is a measure of sensorimotor gating that is reduced in patients (Geyer and Braff, 1987) and NVHL rats (Lipska et al., 1995). PPI was tested in adult sham (n=11), NAC-treated sham (n=12), NVHL (n=9), and NAC-treated NVHL rats (n=17). In addition to loss of PVI maturation and electrophysiological anomalies, developmental oxidative stress in juvenile NVHL rats can cause schizophrenia-relevant adult behavioral deficits.\nThe beneficial effect of NAC treatment includes a large postnatal treatment that starts prior to the lesion and stops once rats become young adults. For full translational value one determines whether NAC is efficacious when started at an age that corresponds to the time when prodromal stages can be identified in humans. In another set of rats, NAC was administered in the drinking water starting at P35, an age that in rats is equivalent to early adolescence. For PPI deficits was tested in adult SHAM (n=15), untreated NVHL (n=12), and NAC-treated NVHL rats (n=14).\nEbselen is a glutathione peroxidase (GPx) mimic (Muller et al., 1984) that induces GPx expression (Kil et al., 2007) and enhances GSH levels in neurons, replenishing GSH depleted by neurotoxic mechanisms (Pawlas and Malecki, 2007). PPI was tested in adult vehicle-treated SHAM (n=10), Ebselen-treated SHAM (n=7), vehicle-treated NVHL (n=8), and Ebselen-treated NVHL rats (n=9), and Ebselen treatment during adolescence reversed PPI deficits in NVHL rats (as shown in FIG. 15D).\nIn another group of rats, the effects of the NADPH oxidase inhibitor Apocynin was assessed while delivering through juvenile and adolescent stages. PPI was tested in adult vehicle-treated SHAM (n=10), apocynin-treated SHAM (n=11), vehicle treated NHVL (n=7), and apocynin-treated NVHL (n=5). As illustrated in FIG. 15C a reversal of PPI deficits was observed.\nAntioxidant pretreatment regimen: NAC (BioAdvantexPharma, Mississauga, Ontario, Canada) was administered in the drinking water at 900 mg/l. NAC treatment started at P5 or at P35, and previous work in mice has shown that NAC consumed by the dam is transmitted to the pups through her milk (das Neves Duarte et al., 2012). NAC treatment ended at P50. Fresh solutions were prepared every 2-3 days. Ebselen (Sound Pharmaceuticals Inc., Seattle, WA) was administered i.p. 5 days a week starting at P35 until the day of PPI testing (P60). Stock ebselen solution (20 mg/ml DMSO, frozen aliquots) was diluted 1:5 in sterile water and administered at a dose of 10 mg/kg. Control animals received an equivalent concentration of DMSO diluted 1:5 in water. Apocynin (Sigma-Aldrich, St. Louis, MO) was administered in the drinking water at a target dose of 100 mg/kg (Nwokocha et al., 2013). Prior to weaning at P21, drinking water contained a dose of 2 g apocynin per 0.5 1 of water, to ensure delivery through the dam's milk. Apocynin concentration was lowered after weaning to 750 mg/1 to best approximate the target dose. Treatment lasted from P5 to P50 with fresh solutions prepared every other day.\nPrepulse inhibition: Starting at P60, both male and female rats were tested for PPI, as described previously (Feleder et al., 2010). As PPI deficits in NVHL rats are most evident when rats are challenged with apomorphine (Lipska et al., 1995), we injected apomorphine (0.1 mg/kg, i.p.) immediately prior to the PPI test session. Rats were placed in a sound- attenuated startle chamber (San Diego Instruments, San Diego, CA) with a 70 dB background white noise. After a 5 min adaptation period, the PPI test was initiated with pseudorandom trials every 15 to 25 seconds. Either pulse (120 dB), prepulse (75 dB, 80 dB, or 85 dB), no pulse or prepulse +pulse were delivered. […]"}, "[1]": {"system": "healthy males and females", "assay": "Ph-1 placebo-controlled, randomized, single ascending dose study: safety", "type": "in vivo, humans", "method": "(§1) Ebselen has excellent oral availability (Fisher et al., 1988). Brain level was about 20% of the plasma level (Imai, et al., 2001, Ullrich, et al., 1996). […] A Ph-1 study was conducted in 32 humans in a placebo-controlled, randomized, single ascending dose design. Ebselen ranged from 200 mg to 1600 mg in the formulation. (1) Pharmacokinetics: The PK parameters of ebselen and its three metabolites were published (Lynch, et al., 2009). […] The tabulated side effects were published in Lynch, et al., 2009."}, "mini-pigs": {"system": "mini-pigs", "assay": "Chronic toxicity studies 26 and 52 weeks, mini-pigs", "type": "in vivo", "method": "(§2) Seven acute and repeated dose toxicology studies were conducted in Sprague-Dawley rats, Sinclair miniature swine, and Cynomolgus monkey, and three genotoxicology studies."}, "neurons": {"system": "neurons", "conditions": "cited from earlier work"}, "rats [2]": {"system": "rats", "assay": "Repeat dosing 28-day study, rats", "type": "in vivo, Sprague-Dawley rats", "method": "as §2"}, "[3]": {"assay": "Ph-1 placebo-controlled, randomized, single ascending dose study: pharmacokinetics", "type": "in vivo", "conditions": "humans, single dose 200 mg to 1600 mg", "method": "as §1"}, "[4]": {"conditions": "in vivo; cited from earlier work"}, "[5]": {"assay": "Repeat dosing 28-day study, monkey", "conditions": "cynomolgus monkey, in vivo, Cynomolgus monkeys, read-out: no-observable-effect-level (NOAEL)", "method": "as §2"}, "[6]": {"assay": "Repeat dosing 28-day study, mini-pig", "parameters": "species or system Sinclair miniature swine", "conditions": "Sinclair, minipig, in vivo, read-out: no-observable-effect-level (NOAEL)", "method": "as §2"}, "rats [7]": {"system": "rats", "assay": "Chronic toxicity studies 26 and 52 weeks, rats", "type": "in vivo", "method": "as §2"}, "[8]": {"conditions": "in vivo; cited from earlier work", "remark": "listed apart in the source"}, "[9]": {"system": "N-methyl-D-asparatate receptors redox modulatory site", "conditions": "cited from earlier work"}, "[10]": {"assay": "Solubility of ebselen in aqueous solutions", "type": "physicochemical", "conditions": "25° Celsius", "method": "Ebselen is the only active ingredient administered in a formulation. […] Ebselen acts as a catalyst and is not consumed during detoxification reactions (Muller et. al, 1988). An embodiment of an ebselen formulation is >99% pure as confirmed by HPLC. The synthesis of this formulation is provided by Rhodia Pharma Solutions and includes capsules that are hermetically sealed in blister packs. Each capsule contains 200 mg the ebselen formulation or SPI-1000 (placebo)."}, "[11]": {"conditions": "32 humans, single dose 200 mg to 1600 mg"}}, "note": "“Also recorded” adds a separate entry of the source. Where two headings read alike, the source gives them in different places."}
{"smiles": "COc1cc(C(C)=O)ccc1O", "note": "[Apocynin]", "values": [{"measurement": "effect on PPI deficit", "setting": "NVHL rats; drinking water, target dose 100 mg/kg, P5 to P50, 100 mg/kg", "result": "prevented; also recorded: reversal"}, {"measurement": "effect on PPI deficit", "setting": "NVHL rats; drinking water, target dose 100 mg/kg, P5 to P50, listed as apocynin, 100 mg/kg", "result": "significant lesion by treatment interaction"}]}
{"smiles": "O=c1c2ccccc2[se]n1-c1ccccc1", "note": "[Ebselen, 2-Phenyl-1,2-benzisoselenazol-3(2H)-one]", "values": [{"measurement": "serious adverse events or discontinuation due to an AE", "setting": "[1]; [11]", "result": "no serious adverse events"}, {"measurement": "severity of AEs", "setting": "[1]; [11]", "result": "mild or moderate"}, {"measurement": "trends in clinical laboratory and ECG findings", "setting": "[1]; [11]", "result": "No treatment- or dose-related trends"}, {"measurement": "safety and tolerability", "setting": "[1]; capsules, single oral dose up to 1600 mg", "result": "safe and well tolerated"}, {"measurement": "non-toxic effect level", "setting": "mini-pigs", "result": 178, "unit": "mg/kg"}, {"measurement": "GSH levels in neurons (basal and stressed conditions)", "setting": "neurons", "result": "increased"}, {"measurement": "glutamate-induced GSH depletion", "setting": "neurons; combined with glutamate", "result": "neutralized; also recorded: Neuroprotective effect"}, {"measurement": "GSH levels in neurons (basal and stressed conditions)", "setting": "neurons; listed as ebselen", "result": "dose-dependently increases; also recorded: dose-dependent rise"}, {"measurement": "no-observable-effect-level (NOAEL)", "setting": "rats [2]", "result": "not identified"}, {"measurement": "Cmax", "setting": "[3]; both sexes, human, in vivo, oral, range of means", "result": "30.3 to 83.4", "unit": "ng/mL"}, {"measurement": "AUC(0-t)", "setting": "[3]; both sexes, human, in vivo, oral, range of means, read-out: mean AUC0-t", "result": "117 to 881", "unit": "ng·h/mL"}, {"measurement": "half-life", "setting": "[3]; both sexes, human, in vivo, oral, range of means, read-out: mean t1/2", "result": "6.4 to 16.7", "unit": "h"}, {"measurement": "Tmax", "setting": "[3]; both sexes, human, in vivo, oral, range of medians, read-out: median Tmax", "result": "1.5 to 2.3", "unit": "h"}, {"measurement": "predominate metabolite", "setting": "[3]", "result": "2-glucuronyl selenobenzanilide"}, {"measurement": "oral availability", "setting": "[4]", "result": "excellent"}, {"measurement": "NOAEL at 28 days", "setting": "[5]", "result": 2000, "unit": "mg/kg"}, {"measurement": "NOAEL at 28 days", "setting": "[6]", "result": "> 2000", "unit": "mg/kg"}, {"measurement": "non-toxic effect level", "setting": "rats [7]", "result": 31.6, "unit": "mg/kg"}, {"measurement": "brain level as share of the plasma level", "setting": "[8]", "result": "about 20%"}, {"measurement": "effect on PPI deficit", "setting": "NVHL rats; 10 mg/kg i.p. 5 days a week from P35 until PPI testing, 10 mg/kg", "result": "reversed; also recorded: significant lesion status by treatment interaction"}, {"measurement": "effect on PPI deficit", "setting": "NVHL rats; 10 mg/kg i.p. 5 days a week from P35 until PPI testing, listed as ebselen, 10 mg/kg", "result": "prevented"}, {"measurement": "effect on NMDA receptor redox modulatory site", "setting": "[9]", "result": "modulates"}, {"measurement": "neuron viability", "setting": "[9]", "result": "increases"}, {"measurement": "solubility in aqueous solutions", "setting": "[10]", "result": "slightly soluble"}]}
